Measurements published in publication PMC9781117, “New 5-Aryl-1,3,4-Thiadiazole-Based Anticancer Agents: Design, Synthesis, In Vitro Biological Evaluation and In Vivo Radioactive Tracing Studies” (Pharmaceuticals, 2022).
≈ marks a conversion by molar mass, not a printed value.

Legend:
[1] = test system: MCF-7 breast adenocarcinoma cells; experiment: MTT cytotoxicity assay, MCF-7; assay type: cell-based, human; details: for IC50: Homo sapiens, MCF7; for IC50 / IC50 MCF-7: MTT, 48 h, means ± SD of three independent experiments; for fold increase in activity relative to parent analogue: MCF-7, 4d vs 4c, 5b, 5c, 5d vs 5a
Description: (§1) The in vitro cytotoxicity of the synthesized 1,3,4-thiadiazole derivatives against breast adenocarcinoma cells (MCF-7) and human hepatocellular carcinoma (HepG2) cell lines were evaluated by the MTT assay, using 5-Fluorouracil (5-FU) as a positive control.
(§2) Human hepatocellular carcinoma (HepG2) cells and breast adenocarcinoma (MCF7) cells were purchased from the American Type Culture Collection (ATCC, USA). Under 37 °C with 5% CO2 in a humid incubator, cells were propagated using RPMI supplemented with 10% fetal bovine serum (FBS) and 1% v/v penicillin-streptomycin.
(§3) According to Tim Mosmann’s approach, an MTT assay was performed to assess the antiproliferative properties of the compounds. In short, HepG2 or MCF7 cells (0.5 × 105) were grown in flat-bottom 96-well microplates in 180 μL/well RPMI media supplemented with 10% fetal bovine serum, 2μmol/mL L-glutamine, 250 ng/mL fungizone, and 100 units/mL penicillin-streptomycin solutions at 37 °C in a CO2 incubator. Following incubation, 180 μL/well of the new serum-free medium was added to each well after the old media had been withdrawn. After that, cells were exposed to 20 μL of various concentrations of the compounds (50–0.75 μg/mL) and were incubated for 48 h at 37 °C in a humidified 5% CO2 environment. The MTT solution (20 µL/well) was added and incubated for a further 4 h. The plate was agitated at room temperature while acidified isopropanol (160 μL/well) was added to dissolve the formazan crystals. The absorbance at 570 nm was then determined photometrically using the microplate ELISA reader (FLUOstar Omega, BMG, Labtech, Germany). Graph-Pad PRISM version 6 was used to determine the IC50 for each compound.

[2] = test system: HepG2 human hepatocellular carcinoma cells; experiment: MTT cytotoxicity assay, HepG2; assay type: cell-based; details: for IC50: Homo sapiens; for IC50 / IC50 HepG2: MTT, 48 h, means ± SD of three independent experiments
Description: as §1, §2, §3

[3] = test system: breast cancer MCF-7 cells; parameters: method as in PMID 22261027; details: cited from earlier work
[4] = test system: normal mammalian Vero cells; experiment: Cytotoxicity against normal Vero cells; assay type: cell-based; details: Chlorocebus sabaeus
[5] = test system: HepG2 cells; experiment: AO/EB fluorescent stain, apoptotic and necrotic cells, HepG2; assay type: cell-based, human; details: HepG2, IC50 concentration, 48 h, vs untreated control cells
Description: Morphologically, there are three different modes of cell death: apoptosis, autophagy, and necrosis (types I, II, and III, respectively).
Fluorescence labeling with acridine orange/ethidium bromide (AO/EB) was used to determine the ratio between apoptosis and necrosis to evaluate the mode of cell death. HepG2 and MCF-7 cells were seeded in six-well plates with DMEM media supplemented with 10% FBS and allowed to settle overnight at 37 °C with 5% CO2 in a humidified incubator. […] 5-FU was used as a positive standard for both cell lines. After incubation, cells were collected by trypsinization and stained using a dye solution of AO and EB in PBS (1:1) for 20 min. The cells were examined using fluorescence microscopy. Each sample had at least 500 counted cells, and the percentage of apoptotic or necrotic cells was determined by […] the number of apoptotic or necrotic cells by the total number of cells counted by 100. The experiment was performed three times in triplicate.

[6] = test system: HepG2 cells; experiment: Annexin V-FITC/PI flow cytometric apoptosis analysis, HepG2; assay type: cell-based, human; details: HepG2, IC50 concentration, 48 h
Excerpt: Propidium iodide (PI) and annexin-V-FITC were used in a flow cytometric investigation on HepG2 and MCF-7 cells to better understand the manner of cell death caused by 4e and 4i, respectively. […] Apoptosis evasion is one of the hallmarks of cancer progression because the loss of apoptosis control prolongs cancer cell survival and allows for the accumulation of mutations that can promote angiogenesis and cell proliferation, disrupt differentiation, and increase invasiveness throughout tumor progression, thus one of the key purposes of apoptosis is to prevent cancer.
The apoptotic activity of compounds 4e and 4i was measured using the annexin V fluorescein isothiocyanate (FITC)/propidium iodide (PI) apoptosis detection kit (BioVision, USA, Catalog #: K101-25) following the manufacturer’s instructions. […] Cells were collected by trypsinization, washed twice using PBS and then 1 × 10^5 cells were resuspended in PBS and stained for 15 min at room temperature in the dark with 5 µL Annexin V-FITC and 5 µL PI in 1x binding buffer. Annexin V-FITC binding was analyzed by a BD FACS Calibur flow cytometry (Ex = 488 nm; Em = 530 nm) using a FITC signal detector (FL1) and PI staining by the phycoerythrin emission signal detector (FL2).

[7] = test system: HepG2 cells; experiment: Cell cycle analysis by flow cytometry (PI), HepG2; assay type: cell-based, human; details: HepG2, IC50 concentration, 48 h, vs control
Description: The cell cycle is made up of several intricately linked processes that enable the cell to develop and multiply. In cancer, the genetic and epigenetic abnormalities in the cell cycle-related genes result in an unchecked proliferation of mutated cells and alteration of cell cycle progression. For further investigation of the inhibitory effects of 4e and 4i compounds on the proliferation of HepG2 and MCF-7 cells, respectively, we examined the cell cycle distribution and DNA content after 48 h of the treatment. […] Consequently, the arrest in the G2/M phase mediates apoptosis via a mitochondrial apoptotic pathway.
Immediately after incubation, trypsinization was used to collect the cells, which were then washed twice with ice-cold PBS before being fixed in 70% (v/v) ethanol at […], re-suspended with 0.1 mg/mL RNase, stained with […] propidium iodide (PI), and incubated for 1 h. The DNA contents of the cells were then analyzed by flow cytometry using an FL2 (λex/em 493/636 nm) signal detector (Abcam, UK, ab139418).

[8] = test system: Bax/Bcl-2 ratio in HepG2 cells; experiment: ELISA Bax/Bcl-2 ratio, HepG2; assay type: cell-based, human; details: HepG2, IC50, 48 h, compared to control and 5-FU treated cells
Excerpt: (§4) The overexpression of antiapoptotic proteins, such as Bcl-2, and the underexpression of proapoptotic proteins, such as Bax, are two common ways that the apoptotic pathway is suppressed in cancer. […] Therefore, a rise in Bax expression and a decrease in Bcl-2 can trigger the apoptotic process and eradicate cancer cells. […] This in turn activates the intrinsic pathway of apoptosis; thus, we next examined their effect on caspase 9 levels. Caspases (cysteine aspartyl-specific proteases), a class of cysteine proteins that cleave target proteins, play a role in executing apoptosis. […] Moreover, we evaluated the effect of the two compounds on the vascular endothelial growth factor VEGF expression. VEGF is one of the pro-angiogenic proteins; upon binding to VEGF receptors in the endothelial cells, it activates phosphorylation, causing increased angiogenesis and resulting in abnormal vasculature in the tumor tissue.
(§5) The protein levels of Bax, Bcl2, caspase 9, and VGEF were estimated using an ELISA assay. […] Cells from each group were scraped off and washed with PBS and then cell pellets were collected from each flask. […] The supernatants were then used for ELISA assays in accordance with the manufacturer’s instructions for the ELISA kits (Sunlong Biotech, China), and absorbance and calculations were carried out using an ELISA reader (FLUOstar Omega, BMG, Labtech, Germany).

[9] = test system: caspase 9 in HepG2 cells; experiment: ELISA caspase 9 level, HepG2; assay type: cell-based, human; details: HepG2, IC50, 48 h
Excerpt: as §4, §5

[10] = test system: VEGF in HepG2 cells; experiment: ELISA VEGF level, HepG2; assay type: cell-based, human; details: HepG2, IC50, 48 h, compared to control and 5-FU treated cells
Excerpt: as §4, §5

For `O=C(C[n+]1ccccc1)Nc1nnc(-c2ccc(Cl)cc2)s1.[Cl-]` [Compound 3, 1-(2-((5-(4-Chlorophenyl)-1,3,4-Thiadiazol-2-yl)Amino)-2-Oxoethyl)Pyridinium Chloride], the IC50 [1] was 7.56 ± 1.2 µg/mL and the IC50 ([2]; HepG2) was 13 ± 0.11 µg/mL.
`O=c1[nH]cc(F)c(=O)[nH]1` [Compound 5-FU, 5-Fluorouracil, reference compound] gave an IC50 [1] of 6.8 ± 0.9 µg/mL (≈ 52.3 µM) and an IC50 ([2]; HepG2) of 8.4 ± 1.2 µg/mL (≈ 64.6 µM).
For `O=C(CN1CCN(c2ccc(F)cc2)CC1)Nc1nnc(-c2ccc(Cl)cc2)s1` [Compound 4g, N-(5-(4-Chlorophenyl)-1,3,4-Thiadiazol-2-yl)-2-(4-(4-Fluorophenyl)Piperazin-1-yl)Acetamide], the IC50 [1] was 10.1 ± 1.2 µg/mL (≈ 23.4 µM) and the IC50 ([2]; HepG2) was 13.9 ± 0.59 µg/mL (≈ 32.1 µM).
Compound `CN1CCN(CC(=O)Nc2nnc(-c3ccc(Cl)cc3)s2)CC1` [Compound 4a, N-(5-(4-Chlorophenyl)-1,3,4-Thiadiazol-2-yl)-2-(4-Methylpiperazin-1-yl)Acetamide] has an IC50 [1] of 51.56 ± 0.48 µg/mL (≈ 147 µM), an IC50 ([2]; HepG2) of 26.3 ± 5.76 µg/mL (≈ 74.7 µM) and a melting point of 168 to 170 °C.
With “4-((5-(4-Chlorophenyl)-1,3,4-Thiadiazol-2-yl)Imino)-N-Phenyl-4,5-Dihydrothiazol-2-Amine [Compound 5a]” the “IC50 MCF-7” value [1] was 24.79 ± 2.30 µg/mL and the “IC50 HepG2” value [2] was 26.12 ± 2.02 µg/mL.
With `O=C(CN1CCN(c2ccccc2)CC1)Nc1nnc(-c2ccc(Cl)cc2)s1` [Compound 4c, N-(5-(4-Chlorophenyl)-1,3,4-Thiadiazol-2-yl)-2-(4-Phenylpiperazin-1-yl)Acetamide] the IC50 [1] was 49.4 ± 3.5 µg/mL (≈ 119 µM) and the IC50 ([2]; HepG2) was 27.9 ± 0.93 µg/mL (≈ 67.5 µM).
For “4-((5-(4-Chlorophenyl)-1,3,4-Thiadiazol-2-yl)Imino)-N-(4-Ethylphenyl)-4,5-Dihydrothiazol-2-Amine [Compound 5c]”, the “fold increase in activity relative to parent analogue” value [1] was 2- to 4 fold, the “IC50 MCF-7” value [1] was 5.72 ± 0.17 µg/mL and the “IC50 HepG2” value [2] was 11.25 ± 0.44 µg/mL.
Work on `O=C(CN1CCN(C(=O)c2ccco2)CC1)Nc1nnc(-c2ccc(Cl)cc2)s1` [Compound 4h, N-(5-(4-Chlorophenyl)-1,3,4-Thiadiazol-2-yl)-2-(4-(Furan-2-Carbonyl)Piperazin-1-yl)Acetamide] yielded an IC50 [1] of 3.21 ± 0.3 µg/mL (≈ 7.43 µM) and an IC50 ([2]; HepG2) of 8.35 ± 0.15 µg/mL (≈ 19.3 µM).
For `Cc1ccc(N2CCN(CC(=O)Nc3nnc(-c4ccc(Cl)cc4)s3)CC2)cc1` [Compound 4d, N-(5-(4-Chlorophenyl)-1,3,4-Thiadiazol-2-yl)-2-(4-(4-Tolyl)Piperazin-1-yl)Acetamide], the IC50 [1] was 21.8 ± 0.43 µg/mL (≈ 50.8 µM), the “fold increase in activity relative to parent analogue” value [1] was > 2 fold and the IC50 ([2]; HepG2) was 44.9 ± 1.54 µg/mL (≈ 105 µM). For the same compound, the melting point was 222 to 224 °C.
In the case of `COc1ccc(/C=C/C(=O)Nc2nnc(-c3ccc(OC)cc3)s2)cc1` [II], the “IC50 MCF-7 growth inhibition” value [3] is listed as 0.28 µg/mL (≈ 0.762 µM) and the “cell cycle effect in MCF-7 cells” value [3] is listed as “cell cycle arrest at the G2/M phase”.
In the case of “N-(4-Bromophenyl)-4-((5-(4-Chlorophenyl)-1,3,4-Thiadiazol-2-yl)Imino)-4,5-Dihydrothiazol-2-Amine [Compound 5e]”, the “IC50 MCF-7” value [1] is reported as 3.77 ± 0.13 µg/mL and the “IC50 HepG2” value [2] is reported as 25.77 ± 0.64 µg/mL.
In the case of “4-((5-(4-Chlorophenyl)-1,3,4-Thiadiazol-2-yl)Imino)-N-(4-Tolyl)-4,5-Dihydrothiazol-2-Amine [Compound 5b]”, the “fold increase in activity relative to parent analogue” value [1] is reported as 2- to 4 fold, the “IC50 MCF-7” value [1] is reported as 12.64 ± 0.47 µg/mL and the “IC50 HepG2” value [2] is reported as 8.81 ± 0.64 µg/mL.
With “4-((4-((5-(4-Chlorophenyl)-1,3,4-Thiadiazol-2-yl)Imino)-4,5-Dihydrothiazol-2-yl)Amino)Phenol [Compound 5d]” the “fold increase in activity relative to parent analogue” value [1] was 2- to 4 fold, the “IC50 MCF-7” value [1] was 6.12 ± 0.51 µg/mL and the “IC50 HepG2” value [2] was 14.12 ± 0.01 µg/mL.
With `CCN1CCN(CC(=O)Nc2nnc(-c3ccc(Cl)cc3)s2)CC1` [Compound 4b, N-(5-(4-Chlorophenyl)-1,3,4-Thiadiazol-2-yl)-2-(4-Ethylpiperazin-1-yl)Acetamide] the IC50 [1] was 25.2 ± 1.3 µg/mL (≈ 68.9 µM) and the IC50 ([2]; HepG2) was 3.55 ± 0.05 µg/mL (≈ 9.7 µM).
Compound `CCOc1ccc(N2CCN(CC(=O)Nc3nnc(-c4ccc(Cl)cc4)s3)CC2)cc1` [Compound 4f, N-(5-(4-Chlorophenyl)-1,3,4-Thiadiazol-2-yl)-2-(4-(4-Ethoxyphenyl)Piperazin-1-yl)Acetamide] has an IC50 [1] of 18.4 ± 0.85 µg/mL (≈ 40.2 µM), an IC50 ([2]; HepG2) of 38.1 ± 0.14 µg/mL (≈ 83.2 µM) and a melting point of 225 to 227 °C.
For `CCOc1ccccc1N1CCN(CC(=O)Nc2nnc(-c3ccc(Cl)cc3)s2)CC1` [Compound 4e, N-(5-(4-Chlorophenyl)-1,3,4-Thiadiazol-2-yl)-2-(4-(2-Ethoxyphenyl)Piperazin-1-yl)Acetamide], the IC50 [1] was 5.36 ± 0.36 µg/mL (≈ 11.7 µM), the “SI Values MCF-7” value ([1]; selectivity index, MCF-7 over normal Vero cells) was 28.79 and the “fold increase in efficacy relative to parent analogue” value ([2]; HepG2, 4b vs 4a, 4e vs 4f) was 12 fold. For the same compound, the IC50 ([2]; HepG2) was 3.13 ± 0.2 µg/mL (≈ 6.83 µM), the “SI Values HepG2” value ([2]; selectivity index, HepG2 over normal Vero cells) was 49.20 and the IC50 [4] was 154 ± 32.2 µg/mL (≈ 337 µM). The “apoptosis and necrosis (AO/EB stain)” value [5] was “significantly enhanced apoptosis and necrosis”, the “main mode of cell death (annexin-V/PI)” value [6] was “apoptosis” and the “total cell death (annexin-V/PI)” value ([6]; vs untreated cells) was “induced significant total cell death”. The cell cycle arrest [7] was “significantly arrested HepG2 cells in the S phase”, the Bax/Bcl-2 ratio [8] was “significant increase” and the “caspase 9 level” value [9] was “significantly enhanced”. The VEGF level [10] was “significantly suppressed”.
